Measurements: patent publication US20050064382A1, “Method of prevention of lysosomal leakage in eukaryotic cells by using 6-methyluracil based water-soluble compounds and method of producing thereof” (priority 2002, published 2005)

What was measured:
MEL cells [1] = assay: Mild damage: cells damaged by one freeze/thaw cycle; assay type: cell-based, mouse; conditions: 24 hours
Experimental: Mild Damage: Influence of Glucural on cells damaged by one-freeze/thaw cycle. Cells were treated exactly as above except that they were subjected to one freeze/thaw cycle (in the absence of cryo-protector) prior to incubation at 37° C. for 24 hours.

MEL cells [2] = assay: Cell recovery after short-term and long-term storage at −135° C.; assay type: cell-based, mouse; conditions: for numbers of cells per ml, Short-Term Storage: 3 days at −135° C.; for numbers of cells per ml, Long-Term Storage: six weeks at −135° C.
Experimental: The cells were then brought to −135° C. over a two-hour period, and stored at this temperature for 3 days (short term) or six weeks (long term). The cells were then thawed quickly by incubation at 37° C., washed twice with growing medium, re-suspended in 5 ml and incubated at 37° C. for 24 hours. The numbers of cells per ml. is x 10^4, two different assays. […]

[3] = tested on: rat thyroid-derived cell line FRTL-5; assay: Storage of FRTL-5 cells at low temperature, viability by well bottom coverage; assay type: cell-based
Experimental: The goal of the study was to assess the influence of Glucural on cell recovery of different mammalian cells suspended in various cryo-protectors. A single layer of the rat thyroid-derived cell line FRTL-5 was grown in VPF-12 medium containing 10% calf serum (C.S.) in Petri dishes (10 cm) stored in an environment of 5% CO2, 100% humidity and at 37° C. Cell coverage on the Petri dish bottom reached 80-90% over 6-8 days. A single-layer cell culture of the cell line from the anterior lobe of the pituitary gland (corticotrophs) of ATT-20 was grown in similar fashion but in D-MEM medium containing 10% C.S.
After exposure, cell suspensions were melted quickly in aliquots with cell suspension equal to 0.2 or 0.4 ml per well. The growing period varied depending on conditions of cell storage. All trials were performed in duplicate. Cell viability was estimated by the percentage of the well bottom covered by cells.
The same method was used here as in tests with MEL cells. Cryo-protectors used were not optimal for FRTL-5 and ATT-20 cells. Conditions of freezing were not optimal in assays # 1, 5 and 6.

[4] = tested on: immortal human monocytes (THP-1 cells); assay: Short-term growth of THP-1 cells in 10% DMSO (trypan-blue test); assay type: cell-based
Experimental: Percentage of dead cells (trypan-blue test) and concentrations of live cells (×1,000,000 cells/ml) were determined. The growth medium was RPMI 1640 with fetal serum and other supplements.

THP-1 cells = assay: Long-term growth of THP-1 cells without change of medium (starvation); assay type: cell-based, human
[5] = tested on: skeletal (rear leg) muscle homogenates; assay: Proteolytic index of muscle homogenates (autoproteolysis, Ninhidrin); assay type: biochemical, rat
Experimental: In-vitro tests were performed on the skeletal (rear leg) muscles of 17 white laboratory rats. Preliminary research efforts determined 1) the preparation method for muscle homogenates, 2) estimation of level of the proteolytic activity by measuring for the concentration of free amino acids, a result of protein cleavage, and 3) the optimal time of authoproteolysis.
The preparation of muscle homogenates. Efforts were made to disassemble the muscle tissue gently, without disruption of the lysosomes, though with sufficient strength to ensure a homogeneous suspension of muscle cells in physiological solution (PBS). Potter's homogenator was used with a glass barrel and a Teflon pestle. Determination of the optimal treatment was based on experimental data and the activity of the proteases during the incubation of the homogenates at 37° C. If lysosomes were damaged during preparation of the homogenates, then there was no increase in concentration of free amino acids during incubation. Undamaged lysosomes in the homogenate would continue their proteolytic activity during incubation. For the best preparation of the homogenate, the muscles were separated from the connecting tissue, weighed and cut up with scissors in a Petri dish for 10 minutes. […]
After the incubation of samples, the protein concentration was estimated by the standard Bio-Rad method. To estimate proteolytic activity based on the concentration of free amino acids found in the sample, three methods were tried: 1) absorbance at 280 nm, 2) concentration of amino acid tyrosine by estimation with Folin reagent, and 3) concentration of end amino groups with Ninhidrin reagent. Only method 3 provided accurate results, so the proteolytic index was measured based on the Ninhidrin reagent. […] Samples were boiled in a water bath for 10 minutes, chilled and the absorbance at 560 nm was measured. […] Concentrations of free amino acids and protein in mg/ml could therefore be determined for both cases. The ratio of free amino acids per proteins in the sample was calculated as the proteolytic index. […]

[6] = 10% DMSO plus Glucural 10 mkg/ml, 4.5 hrs
[7] = 10% DMSO plus Glucural 10 mkg/ml, 24 hrs
[8] = 10% DMSO plus Glucural 20 mkg/ml, 4.5 hrs
[9] = 10% DMSO plus Glucural 20 mkg/ml, 24 hrs
[10] = 10% DMSO plus Glucural 50 mkg/ml, 4.5 hrs
[11] = 10% DMSO plus Glucural 50 mkg/ml, 24 hrs

complex of 2,4-dihydroxy-6-methylpyrimidine with N-methyl-D-glucamine [Glucural]
number of cells per ml, Mild damage (MEL cells [1]; Glucural 25 mkg/ml): 36 x 10^4
number of cells per ml, Mild damage (MEL cells [1]; Glucural 50 mkg/ml): 53 ± 5 x 10^4
number of cells per ml, Mild damage (MEL cells [1]; Glucural 100 mkg/ml): 40 ± 1 x 10^4
number of cells per ml, Mild damage (MEL cells [1]; Glucural 200 mkg/ml): 45 ± 0 x 10^4
number of cells per ml, Mild damage (MEL cells [1]; Glucural 400 mkg/ml): 31 ± 1 x 10^4
effect during short-term storage (MEL cells [2]): little or no effect
numbers of cells per ml, Short-Term Storage (MEL cells [2]; Glucural 10 mkg/ml): 34 ± 4 x 10^4
numbers of cells per ml, Long-Term Storage (MEL cells [2]; Glucural 10 mkg/ml): 122 ± 8 x 10^4
numbers of cells per ml, Short-Term Storage (MEL cells [2]; Glucural 25 mkg/ml): 38 ± 2 x 10^4
numbers of cells per ml, Long-Term Storage (MEL cells [2]; Glucural 25 mkg/ml): 167 ± 3 x 10^4
numbers of cells per ml, Short-Term Storage (MEL cells [2]; Glucural 50 mkg/ml): 33 ± 2 x 10^4
numbers of cells per ml, Long-Term Storage (MEL cells [2]; Glucural 50 mkg/ml): 200 ± 12 x 10^4
numbers of cells per ml, Short-Term Storage (MEL cells [2]; Glucural 100 mkg/ml): 37 ± 2 x 10^4
numbers of cells per ml, Long-Term Storage (MEL cells [2]; Glucural 100 mkg/ml): 169 ± 15 x 10^4
numbers of cells per ml, Short-Term Storage (MEL cells [2]; Glucural 200 mkg/ml): 56 ± 5 x 10^4
numbers of cells per ml, Long-Term Storage (MEL cells [2]; Glucural 200 mkg/ml): 155 ± 14 x 10^4
increase of cell survival rates during long-term storage (MEL cells [2]; optimal concentration of about 50 mkg/ml): over 3 times
Percentage of well bottom covered by cells ([3]; #1 FRTL-5 (4 days), 10% Glycerol, −70° C., Glucural 100 mg/ml): 90-100%
Percentage of well bottom covered by cells ([3]; #1 FRTL-5 (4 days), 10% Glycerol, −70° C., Glucural 200 mg/ml): 90-100%
Percentage of well bottom covered by cells ([3]; #2 FRTL-5 (36 days), 10% Glycerol, −190° C., Glucural 100 mg/ml): 10-15%
Percentage of well bottom covered by cells ([3]; #3 FRTL-5 (4 days), 50% C.S., 0° C., 30 min, Glucural 100 mg/ml): 60-70%
Percentage of well bottom covered by cells ([3]; #3 FRTL-5 (4 days), 50% C.S., 0° C., 30 min, Glucural 200 mg/ml): 60-70%
Percentage of dead cells (trypan-blue test) [4, 6]: 13.3 ± 1.3%
concentrations of live cells [4, 6]: 1.06 ± 0.08 ×1,000,000 cells/ml
Percentage of dead cells (trypan-blue test) [4, 7]: 40.5 ± 0.5%
concentrations of live cells [4, 7]: 2.21 ± 0.26 ×1,000,000 cells/ml
Percentage of dead cells (trypan-blue test) [4, 8]: 2.6 ± 2.0%
concentrations of live cells [4, 8]: 0.52 ± 0.05 ×1,000,000 cells/ml
Percentage of dead cells (trypan-blue test) [4, 9]: 36.1 ± 0.75%
concentrations of live cells [4, 9]: 0.86 ± 0.04 ×1,000,000 cells/ml
Percentage of dead cells (trypan-blue test) [4, 10]: 17.2 ± 0.4%
concentrations of live cells [4, 10]: 0.65 ± 0.03 ×1,000,000 cells/ml
Percentage of dead cells (trypan-blue test) [4, 11]: 39.5 ± 1.1%
concentrations of live cells [4, 11]: 1.31 ± 0.02 ×1,000,000 cells/ml
percentage of dead cells (trypan blue test) (THP-1 cells; Glucural 10 mkg/ml, 3 days of growing): 2.1 ± 0.5%
percentage of dead cells (trypan blue test) (THP-1 cells; Glucural 10 mkg/ml, 4 days of growing): 7.2 ± 1.3%
percentage of dead cells (trypan blue test) (THP-1 cells; Glucural 10 mkg/ml, 10 days of growing): 10.7 ± 0.2%
percentage of dead cells (trypan blue test) (THP-1 cells; Glucural 10 mkg/ml, 14 days of growing): 15.3 ± 0.2%
percentage of dead cells (trypan blue test) (THP-1 cells; Glucural 20 mkg/ml, 3 days of growing): 5.5 ± 0.25%
percentage of dead cells (trypan blue test) (THP-1 cells; Glucural 20 mkg/ml, 4 days of growing): 0%
percentage of dead cells (trypan blue test) (THP-1 cells; Glucural 20 mkg/ml, 10 days of growing): 10.85 ± 0.35%
percentage of dead cells (trypan blue test) (THP-1 cells; Glucural 20 mkg/ml, 14 days of growing): 15.3 ± 0.5%
decrease of proteolytic activity in muscles ([5]; Glucural 50 mkg/ml (Group 4)): 36%
decrease of proteolytic activity in muscles ([5]; Glucural 100 mkg/ml (Group 5)): 51%
reduction of autoproteolysis ([5]; Glucural less than 50 mkg/ml): not sufficient to reduce autoproteolysis
